From the supplement of paper PMC10307832

Legend:
Experiment in all cases: relative viability (nuclei count vs DMSO), 5 days (fraction); higher = more cells survive
[1] = compound: CC1=CC(=C(N1C2=CC=C(C=C2)Cl)C)C(=O)CN3CCCCC3 [IU1-47] + CC1(C)CCC(c2ccc(Cl)cc2)=C(CN2CCN(c3ccc(C(=O)NS(=O)(=O)c4ccc(N[C@H](CCN5CCOCC5)CSc5ccccc5)c(S(=O)(=O)C(F)(F)F)c4)cc3)CC2)C1 [Navitoclax] (partner 0.5 µM)
Procedure, shortened: (§1)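 Values are medians from duplicate plates. Each reflects relative viability, defined as the nuclei count of treated wells over that of vehicle wells. Lung cancer cell lines in 1536-well plates were pin-tool dosed one day after seeding with one drug alone or with a fixed anchor-drug dose plus five library-drug doses (not always all listed) in √10 steps, then fixed, stained and imaged at 4× after 5 days.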

[2] = compound: Cc1nc(C(=O)NCC(=O)O)c(O)c2ccc(Oc3ccccc3)cc12 [FG-4592]
Procedure, shortened: (§2)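 Viability here means nuclei in treated wells divided by nuclei in vehicle wells, reported as the median across plates. Only plates with control CV below 25% and at least one doubling passed. Lung cancer cell lines in 1536-well plates were exposed to five √10-spaced library-drug doses for 5 days and counted from 4× Hoechst images in MetaXpress.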

[3] = compound: CC1=CC(=C(N1C2=CC=C(C=C2)Cl)C)C(=O)CN3CCCCC3 [IU1-47]
Procedure, shortened: as §2

[4] = compound: Cc1nc(C(=O)NCC(=O)O)c(O)c2ccc(Oc3ccccc3)cc12 [FG-4592] + N=C(N)NC(=N)NCCc1ccccc1 [Phenformin] (partner 250 µM)
Procedure, shortened: as §1

Row | Cell Line | relative viability ([1]; first compound 0.08 µM) | relative viability ([1]; first compound 0.253 µM) | relative viability ([1]; first compound 0.8 µM) | relative viability ([1]; first compound 2.53 µM) | relative viability ([1]; first compound 8 µM) | relative viability ([2]; 0.08 µM) | relative viability ([2]; 0.253 µM) | relative viability ([2]; 0.8 µM) | relative viability ([2]; 2.53 µM) | relative viability ([2]; 8 µM) | relative viability ([3]; 0.08 µM) | relative viability ([3]; 0.253 µM) | relative viability ([3]; 0.8 µM) | relative viability ([3]; 2.53 µM) | relative viability ([3]; 8 µM) | relative viability ([4]; first compound 0.08 µM) | relative viability ([4]; first compound 0.253 µM) | relative viability ([4]; first compound 2.53 µM) | relative viability ([4]; first compound 8 µM) | relative viability ([4]; first compound 0.8 µM)
1 | Calu-6 | 1.07 | 1.01 | 0.827 | 0.867 | 0.802 | 0.945 | 0.995 | 1.03 | 0.975 | 1.02 | 1 | 1.06 | 1.07 | 1.04 | 1.02 | – | – | – | – | –
2 | LC-2-ad | 0.429 | 0.548 | 0.524 | 0.443 | 0.382 | 0.997 | 0.924 | 0.973 | 0.925 | 1.09 | 0.981 | 0.997 | 1.07 | 0.673 | 0.889 | 0.571 | 0.541 | 0.527 | 0.658 | –
3 | CAL-12T | 1.29 | 1.32 | 1.24 | 1.24 | 1.38 | 0.973 | 0.864 | 1.05 | 0.906 | 0.894 | 0.916 | 0.919 | 1.03 | 0.826 | 0.879 | 0.593 | 0.51 | 0.546 | 0.542 | 0.56
4 | RERF-LC-KJ | 0.939 | 0.812 | 0.839 | 1.14 | 0.879 | 1.03 | 0.922 | 1 | 1.02 | 0.906 | 1.06 | 1.04 | 1.14 | 0.902 | 0.946 | 0.378 | 0.324 | 0.538 | 0.481 | 0.418
5 | NCI-H1650 | 1.08 | 1.35 | 1.08 | 1.36 | 0.918 | 0.835 | 0.858 | 0.986 | 0.935 | 0.979 | 0.9 | 1.04 | 0.951 | 0.831 | 0.845 | 0.464 | 0.448 | 0.586 | 0.51 | 0.338
6 | ABC-1 | – | – | – | – | – | 0.814 | 0.824 | 0.924 | 0.949 | 0.77 | 1.03 | 1.01 | 0.888 | – | 0.876 | 0.232 | 0.201 | 0.258 | 0.254 | 0.211
7 | NCI-H1299 | 1.11 | 1.13 | 1.05 | 1.05 | 1.03 | 0.974 | 0.98 | 0.982 | 0.99 | 1.02 | 0.995 | 1.05 | 1.06 | 1 | 1.02 | – | – | – | – | –
8 | EBC-1 | 0.487 | 0.479 | 0.393 | 0.413 | 0.299 | 1.07 | 0.977 | 0.95 | 0.94 | 0.953 | 1.06 | 0.954 | 1.05 | 0.921 | 0.867 | – | – | – | – | –
9 | NCI-H2342 | – | – | – | – | – | 0.985 | 0.97 | 0.839 | 0.812 | 0.82 | 1.03 | 1.03 | 1.28 | 1.15 | 0.985 | 0.521 | 0.531 | 0.613 | 0.469 | 0.519
10 | NCI-H650 | – | – | – | – | – | 0.836 | 0.964 | 0.737 | 0.912 | 0.891 | 1.15 | 1.08 | 0.978 | 0.836 | 0.876 | 0.393 | 0.445 | 0.49 | 0.437 | 0.406
11 | NCI-H358 | – | – | – | – | – | 1.02 | 0.835 | 1.16 | 0.896 | 0.989 | 1 | 0.912 | 0.981 | 0.89 | 0.848 | 0.361 | 0.293 | 0.324 | 0.5 | 0.372
12 | NCI-H1563 | – | – | – | – | – | 0.946 | 0.958 | 0.922 | 0.988 | 0.888 | 0.985 | 0.983 | 1.12 | 0.944 | 1.05 | 0.663 | 0.735 | 0.665 | 0.603 | 0.684
13 | SW 900 | – | – | – | – | – | 0.699 | 0.954 | 0.514 | 0.913 | 1.13 | 0.771 | 0.589 | 0.82 | 0.68 | 0.742 | 0.584 | 0.687 | 0.47 | 0.586 | 0.439
14 | IA-LM | 0.758 | 1.08 | 0.739 | 1.05 | 0.81 | 0.913 | 0.933 | 0.894 | 0.859 | 0.764 | 1.11 | 1.08 | 1.08 | 1.01 | 0.884 | – | – | – | – | –
15 | NCI-H1703 | 1.06 | 0.961 | 0.953 | 1.44 | 1.15 | 0.901 | 0.823 | 0.935 | 0.904 | 0.772 | 1.03 | 0.75 | 0.894 | 0.921 | 0.922 | – | – | – | – | –
16 | LCLC-103H | – | – | – | – | – | 0.955 | 0.971 | 0.807 | 0.865 | 0.938 | 1.03 | 1.1 | 0.871 | 0.976 | 0.933 | 0.3 | 0.325 | 0.294 | 0.319 | 0.248
17 | NCI-H1648 | – | – | – | – | – | 0.798 | 0.926 | 0.907 | 0.83 | 1.28 | 0.947 | 1.17 | 1.17 | 0.557 | 0.552 | – | – | – | – | –
